Measurements from patent publication US7704995B2 (Exelixis, Inc., priority 2003, dated 2010).

Assays:
Format in all cases: biochemical
[1] = biological target: T1, Chk2 (Homo sapiens, UniProt O96017); assay: Chk2 kinase assay: incorporation of γ-33P ATP into immobilized myelin basic protein; settings: 20 nM Chk2, 30 μM unlabeled ATP, 1 hour at room temperature; read-out: Chk2 inhibition, IC50
T1 construct: purchased Upstate Biotechnology
Description: Chk1 and Chk2 assays were performed by measuring incorporation of γ-^33P ATP into immobilized myelin basic protein (MBP). High binding white 384 well plates (Greiner) were coated with MBP (Sigma #M-1891) by incubation of 60 ul/well of 20 μg/ml MBP in Tris-buffered saline (TBS; 50 mM Tris pH 8.0, 138 mM NaCl, 2.7 mM KCl) for 24 hours at 4° C. Plates were washed 3× with 100 μl TBS. Kinase reactions were carried out in a total volume of 34 μl in kinase buffer (5 mM Hepes pH 7.6, 15 mM NaCl, 0.01% bovine gamma globulin (Sigma #I-5506), 10 mM MgCl2, 1 mM DTT, 0.02% TritonX-100). Compound dilutions were performed in DMSO and added to assay wells to a final DMSO concentration of 1%. Each data point was measured in duplicate, and at least two duplicate assays were performed for each individual compound determination. […] A mixture of unlabeled ATP and γ-^33P ATP was added to start the reaction (2×10^6 cpm of γ-^33P ATP per well (3000 Ci/mmole) and either 10 μM or 30 μM unlabeled ATP (for Chk1 and Chk2 assays respectively). The reaction was carried out for 1 hour at room temperature with shaking. Plates were washed 7× with TBS, followed by the addition of 50 μl/well scintillation fluid (Wallac). Plates were read using a Wallac Trilux counter. This is only one format of such assays, various other formats are possible, as known to those skilled in the art. […]

[2] = biological target: KDR (Homo sapiens, UniProt P35968); assay: Kinase specificity assay (33P phosphoryl transfer, LCCA or AlphaScreen); settings: ATP close to KM; read-out: KDR inhibition, IC50
KDR, sequence (P35968 20-1356): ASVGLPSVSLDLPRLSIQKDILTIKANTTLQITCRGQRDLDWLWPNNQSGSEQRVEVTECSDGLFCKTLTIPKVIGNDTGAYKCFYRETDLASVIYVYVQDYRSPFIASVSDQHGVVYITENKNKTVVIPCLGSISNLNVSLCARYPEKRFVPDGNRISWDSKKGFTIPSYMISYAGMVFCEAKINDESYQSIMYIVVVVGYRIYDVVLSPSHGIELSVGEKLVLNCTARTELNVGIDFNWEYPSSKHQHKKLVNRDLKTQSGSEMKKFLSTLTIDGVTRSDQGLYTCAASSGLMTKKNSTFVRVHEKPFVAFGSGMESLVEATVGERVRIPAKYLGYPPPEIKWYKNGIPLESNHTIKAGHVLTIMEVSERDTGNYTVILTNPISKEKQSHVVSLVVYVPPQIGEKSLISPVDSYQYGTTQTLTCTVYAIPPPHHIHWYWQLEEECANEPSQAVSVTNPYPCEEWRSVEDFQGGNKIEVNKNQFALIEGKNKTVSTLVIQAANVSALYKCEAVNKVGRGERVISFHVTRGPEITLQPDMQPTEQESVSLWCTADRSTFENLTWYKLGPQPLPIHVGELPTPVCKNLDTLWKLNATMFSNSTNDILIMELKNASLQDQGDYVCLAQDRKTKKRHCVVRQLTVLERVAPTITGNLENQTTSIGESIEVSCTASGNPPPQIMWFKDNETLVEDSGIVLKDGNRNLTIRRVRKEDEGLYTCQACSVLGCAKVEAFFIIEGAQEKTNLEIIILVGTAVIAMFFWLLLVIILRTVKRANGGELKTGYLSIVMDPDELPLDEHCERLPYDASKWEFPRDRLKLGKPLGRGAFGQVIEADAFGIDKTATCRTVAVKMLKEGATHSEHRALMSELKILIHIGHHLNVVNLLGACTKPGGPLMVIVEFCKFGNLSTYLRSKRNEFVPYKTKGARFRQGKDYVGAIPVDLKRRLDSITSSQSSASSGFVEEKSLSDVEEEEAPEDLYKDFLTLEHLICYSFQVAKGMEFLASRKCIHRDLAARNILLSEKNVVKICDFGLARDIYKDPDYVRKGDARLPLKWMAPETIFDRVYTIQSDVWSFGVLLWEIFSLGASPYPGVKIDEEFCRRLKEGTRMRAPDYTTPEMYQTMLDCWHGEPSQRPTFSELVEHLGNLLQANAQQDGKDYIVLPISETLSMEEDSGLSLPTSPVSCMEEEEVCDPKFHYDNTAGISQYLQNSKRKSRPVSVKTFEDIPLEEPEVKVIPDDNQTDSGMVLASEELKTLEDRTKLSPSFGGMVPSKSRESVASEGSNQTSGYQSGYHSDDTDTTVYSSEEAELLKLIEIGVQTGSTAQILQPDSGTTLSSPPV
Description: Kinase activity and compound inhibition are investigated using one or more of the three assay formats described below. The ATP concentrations for each assay are selected to be close to the Michaelis-Menten constant (KM) for each individual kinase. Dose-response experiments are performed at 10 different inhibitor concentrations in a 384-well plate format.
The coating solution is aspirated and the plates are washed once with 50 μL of assay buffer and padded dry. […] The plates are subsequently washed 6-12 times with PBST or TBS buffer.

[3] = biological target: T2, Chk1 (Homo sapiens, UniProt O14757); assay: Chk1 kinase assay: incorporation of γ-33P ATP into immobilized myelin basic protein; settings: 10 nM Chk1, 10 μM unlabeled ATP, 1 hour at room temperature; read-out: Chk1 inhibition, IC50
T2 construct: purchased Upstate Biotechnology
T2 sequence (O14757 1-476): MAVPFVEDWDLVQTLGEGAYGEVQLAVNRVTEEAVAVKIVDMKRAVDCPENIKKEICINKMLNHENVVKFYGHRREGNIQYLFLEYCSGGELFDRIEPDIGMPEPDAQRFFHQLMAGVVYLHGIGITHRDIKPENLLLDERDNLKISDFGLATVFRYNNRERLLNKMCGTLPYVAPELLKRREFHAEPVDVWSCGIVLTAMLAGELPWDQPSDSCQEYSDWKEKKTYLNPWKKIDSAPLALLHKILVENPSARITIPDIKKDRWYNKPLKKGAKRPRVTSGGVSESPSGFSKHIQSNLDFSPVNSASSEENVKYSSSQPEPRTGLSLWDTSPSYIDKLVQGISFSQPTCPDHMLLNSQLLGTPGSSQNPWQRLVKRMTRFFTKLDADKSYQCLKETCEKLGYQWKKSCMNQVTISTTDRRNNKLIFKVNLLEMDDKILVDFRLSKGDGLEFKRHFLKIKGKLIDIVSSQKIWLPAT
How it was run: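 Radiometric filter-free format: Chk1 10 nM, 10 μM ATP; Chk2 20 nM, 30 μM ATP; γ-33P ATP tracer; immobilized MBP substrate; Hepes pH 7.6, 10 mM MgCl2, 1 mM DTT; 1 h RT; 1% DMSO. Scintillation counting of washed plates. IC50/Ki from curve fit.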

T1 sequence (O96017 whole entry): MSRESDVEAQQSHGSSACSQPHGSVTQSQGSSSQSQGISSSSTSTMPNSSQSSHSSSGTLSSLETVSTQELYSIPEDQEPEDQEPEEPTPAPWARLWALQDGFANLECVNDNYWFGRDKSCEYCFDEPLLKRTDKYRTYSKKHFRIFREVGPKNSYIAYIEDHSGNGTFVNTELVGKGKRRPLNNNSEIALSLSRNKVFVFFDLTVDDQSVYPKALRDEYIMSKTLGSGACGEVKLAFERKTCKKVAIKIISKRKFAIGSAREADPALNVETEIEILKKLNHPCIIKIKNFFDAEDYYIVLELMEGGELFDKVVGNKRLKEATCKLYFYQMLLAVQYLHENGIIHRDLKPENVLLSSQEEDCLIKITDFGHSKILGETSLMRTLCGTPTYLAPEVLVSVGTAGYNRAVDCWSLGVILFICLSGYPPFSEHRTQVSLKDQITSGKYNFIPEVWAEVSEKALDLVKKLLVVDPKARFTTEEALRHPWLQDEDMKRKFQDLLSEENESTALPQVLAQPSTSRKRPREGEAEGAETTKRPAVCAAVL

NC(=O)c1nc(-c2cccc3ccccc23)cnc1N [Example 2, 3-Amino-6-naphthalen-1-ylpyrazine-2-carboxamide]
IC50 [1]: < 50 nM | IC50 [2]: 50 to 1000 nM | IC50 [3]: < 50 nM
